The results in this text go back to patent publication US20020197561A1, “Optical data carrier comprising a cyclizable compound in the information layer” (priority 2001, published 2002).

Holding throughout (format): physicochemical
A short description of data set [1]: cyclization temperature Tcyc by Differential Thermal Analysis (DTA). Conditions: for cyclization temperature Tcyc: determined using DTA; for Tcyc: table, DTA. As for the experimental part: The cyclization temperature Tcyc is determined, for example, by means of Differential Thermal Analysis DTA. In the case of the preferred exothermic cyclization, it corresponds to the maximum of the rearrangement signal. The heating rate in the DTA measurements is, for example, 10° C. per minute. Under these conditions, the width at half height of the rearrangement signal is preferably less than 10° C., particularly preferably less than 7° C., very particularly preferably less than 5° C. For the purposes of the invention, the width at half height is the width of the signal at a height halfway between the base and the apex.
cyclization temperature Tcyc: 123° C. (determined using DTA, see description. This also applies to the other examples).

Data set [2] in a line: film formed by the dye (spin coating). The source says:
Apart from the abovementioned optical properties, the writeable information layer comprising light-absorbent organic substances has to have a substantially amorphous morphology to keep the noise signal during writing or reading as small as possible. For this reason, it is particularly preferred that crystallization of the light-absorbent substances be prevented in the application of the substances by spin coating from a solution, by vapour deposition and/or sublimation during subsequent covering with metallic or dielectric layers under reduced pressure.
(§1) A 2% strength by weight solution of the dye in 2,2,3,3-tetrafluoropropanol was prepared at room temperature. This solution was applied by means of spin coating to a fused silica substrate. The resulting thickness of the dye film was about 150 nm. This specimen was heated from 50° C. to 133° C. in a stream of helium at a mean heating rate of 3 K/min and subsequently cooled to 81° C. at a mean cooling rate of 1.4 K/min. During the heating and cooling phases, transmission spectra of the specimen in the wavelength range from 200 nm to 1700 nm were recorded. The change in the optical properties resulting from the ring-closure reaction can be observed by looking at the transmission spectra at different temperatures.

Data set [3] can be described thus: absorption spectra measured in solution (λmax, ε, shift Δλmax after thermal cyclization). The arrangement: λmax: unit: nm (local absorption maximum, 350–470 nm range); Δλmax: unit: nm; negative = hypsochromic shift. The following applies: for absorption shift after cyclization Δλmax: after thermal cyclization, negative = hypsochromic; for Δλmax: shift after thermal cyclization; for λmax: solvent not given. An excerpt: Preference is given to dyes in which the shift in the absorption maximum induced by thermal cyclization, Δλmax, is 25 nm or more, preferably ≧35 nm, in particular ≧45 nm. If a preferably hypsochromic shift occurs, then Δλmax is negative. For the purposes of the invention, the absorption maximum is the local maximum in the range from 350 to 470 nm; it is not necessarily the absolute maximum in the UV/VIS spectrum in the range from 190 to 800 nm.
The light-absorbent compounds preferably have a molar extinction coefficient ε of >20 000 l/mol cm, preferably >30 000 l/mol cm, particularly preferably >40 000 l/mol cm, very particularly preferably >50 000 l/mol cm, at the absorption maximum λmax.
The absorption spectra are, for example, measured in solution.

Data set [4] is described as follows: solubility in TFP (2,2,3,3-tetrafluoropropanol).
Data set [5] can be described thus: index of refraction of spin-coated dye film over temperature cycle. Here is the method: as §1
The absorption band in the region of 450 nm obviously disappears virtually completely and leads to a change in the absorption properties which can be utilized in the wavelength range from 400 to 500 nm for the optical storage and reproduction of data, for example when a laser beam having an appropriate pulse duration and pulse energy heats the dye layer to above 133° C. Furthermore, each absorption also produces a dispersion of the index of refraction over the wavelength. This leads, in particular on the flanks of the absorption bands, to indices of refraction which are lower (short wavelength flank) or higher (long wavelength flank) than 1.4-1.6, which represents the usual range for colourless organic materials. For example, the index of refraction of the dye at 405 nm is 1.17 at the beginning of the temperature cycle and that at 515 nm is […]. After the temperature cycle, when the absorption band has disappeared virtually completely, the decolourized dye has an index of refraction in the range from 1.4 to 1.6 in the visible spectrum. This change in the index of refraction can likewise be utilized for the optical storage and reproduction of data, for example when a laser beam having an appropriate pulse duration and pulse energy heats the dye layer to above 133° C. […]

Setting [6] is: molar extinction coefficient at λmax.

Consider `CCOC(=O)/C(C#N)=C/C=C1\NCCc2cc(OC)c(OC)cc21` [Example 1], for which, in data set [1], the “cyclization temperature Tcyc” value worked out at 123 °C. In addition, the film entry in data set [2] is on record as “glass-like film”. The “absorption shift after cyclization Δλmax” value in data set [3] was −49 nm. Also, the “λmax (methanol)” value in data set [3] was 447 nm. For the same compound, the ε in data set [3] (setting [6]) was 47 560 l/mol cm. In addition, the solubility in data set [4] is over 2%. Besides, the index of refraction is 1.4-1.6 in data set [5] (after the temperature cycle (50 to 133° C.), visible spectrum, decolourized dye); 1.17 in data set [5] (at 405 nm, beginning of the temperature cycle, about 150 nm film on fused silica); 2.17 in data set [5] (at 515 nm, beginning of the temperature cycle).

With `CCc1ccc2c(NC(C)C)c(/C=C\C(=O)OC)c(=O)oc2c1` [Example 3], the “cyclization temperature Tcyc” value in data set [1] turned out to be 206 °C. Further, the film result in data set [2] is “glass-like film”. For the same compound, in data set [3], the “absorption shift after cyclization Δλmax” value was −20 nm and the “λmax (methanol)” value amounted to 359 nm. The ε in data set [3] (setting [6]) is given as 20 700 l/mol cm. Moreover, in data set [4], the solubility was determined as 1%.

As to `CCCCNC1=C(/C=C(/C#N)C(=O)OCC)CCC1` [Example 4], in data set [1], the “cyclization temperature Tcyc” value was determined as 198 °C. Also, in data set [2], the film entry was “glass-like film”. Moreover, in data set [3], the “absorption shift after cyclization Δλmax” value is reported as −72 nm and the “λmax (methanol)” value is on record as 441 nm. Moreover, the ε in data set [3] (setting [6]) is listed as 36 910 l/mol cm. The compound further registered a solubility in data set [4] of over 2%.

In the case of `CCOC(=O)/C(C#N)=C/C=C1\NCCc2ccccc21` [Example 5], the Tcyc in data set [1] was found to be 124 °C. Moreover, in data set [3] (table), the ε was 53 320, the Δλmax was −46 and the λmax turned out to be 440.

In the case of `CCC1Cc2cc(OC)ccc2/C(=C/C=C(\C#N)C(=O)OCCOC)N1` (centres unmarked) [Example 8], the Tcyc in data set [1] worked out at 212 °C. In data set [3] (table), the ε was 37 520, the Δλmax was −50 and the λmax turned out to be 444.

`CCOC(=O)/C(C#N)=C/C(C#N)=C1\NC(CC)Cc2cc(N(C)C)ccc21` (centres unmarked) [Example 9] came in with a Tcyc in data set [1] of 207 °C. Besides, in data set [3] (table), the ε was 63 160, the Δλmax is recorded as −53 and the λmax stood at 452.

In data set [1], `Cc1ccc(N/C=C\c2c(C#N)c(=O)oc3ccccc23)cc1C` [Example 11] registered a Tcyc of 157 °C. For the same compound, in data set [3] (table), the ε is reported as 30 820, the Δλmax entry is reported as “>|100|*” and the λmax was 467.

`CCc1ccc(N/C=C(/Br)c2c(C#N)c(=O)[nH]c3ccc(CC)cc23)cc1` [Example 12] gave a Tcyc in data set [1] of 161 °C. Moreover, in data set [3] (table), the ε was 32 140, the Δλmax entry is reported as “>|100|*” and the λmax came to 463.

In the case of `CCCCN/C=C\c1c(C(=O)OC(C)C)c(=O)oc2cc(OC)c(OC)cc12` [Example 13], the Tcyc in data set [1] was 81 °C. Besides, in data set [3] (table), the ε is given as 24 580, the Δλmax is −50 and the λmax was 422.

Turning to `Cc1ccc(S(=O)(=O)OCc2c(/C=C\NC3CCCCC3)c3ccccc3oc2=O)cc1` [Example 14], in data set [1], the Tcyc is 175 °C. Further, in data set [3] (table), the ε was 21 750, the Δλmax is recorded as −15 and the λmax is reported as 368.

Consider `N#Cc1c(/C=C\Nc2ccccc2)c2ccc(-n3nccn3)cc2oc1=O` [Example 15], for which, in data set [1], the Tcyc turned out to be 146 °C. Besides, in data set [3] (table), the ε was 38 540, the Δλmax result is “>|100|*” and the λmax is 468.

In turn, `COc1ccc(Nc2c(C=C(C#N)C#N)c(=O)oc3ccccc23)cc1OC` [Example 16] had a Tcyc in data set [1] of 167 °C. Moreover, in data set [3] (table), the ε is listed as 26 670, the Δλmax is listed as −38 and the λmax was found to be 386.

`CCOC(=O)/C(C#N)=C/C1=C(Nc2ccc(OC)cc2)CCCC1` [Example 17]: in data set [1], the Tcyc came out at 176 °C. In data set [3] (table), the ε is 33 200, the Δλmax is −65 and the λmax stood at 445.

`CCCCNC1=C(C=C(C#N)C#N)CCC1` [Example 18] yielded a Tcyc in data set [1] of 174 °C. Also, in data set [3] (table), the ε is listed as 37 840, the Δλmax is given as −70 and the λmax is listed as 440.
